Consider 17 compounds from patent publication US11236046B2, “Substituted heterocyclic sulfonamide compounds useful as TRPA1 modulators” (Genentech, Inc., priority 2013, dated 2022).

Sequence of human TRPA1 (O75762 whole entry): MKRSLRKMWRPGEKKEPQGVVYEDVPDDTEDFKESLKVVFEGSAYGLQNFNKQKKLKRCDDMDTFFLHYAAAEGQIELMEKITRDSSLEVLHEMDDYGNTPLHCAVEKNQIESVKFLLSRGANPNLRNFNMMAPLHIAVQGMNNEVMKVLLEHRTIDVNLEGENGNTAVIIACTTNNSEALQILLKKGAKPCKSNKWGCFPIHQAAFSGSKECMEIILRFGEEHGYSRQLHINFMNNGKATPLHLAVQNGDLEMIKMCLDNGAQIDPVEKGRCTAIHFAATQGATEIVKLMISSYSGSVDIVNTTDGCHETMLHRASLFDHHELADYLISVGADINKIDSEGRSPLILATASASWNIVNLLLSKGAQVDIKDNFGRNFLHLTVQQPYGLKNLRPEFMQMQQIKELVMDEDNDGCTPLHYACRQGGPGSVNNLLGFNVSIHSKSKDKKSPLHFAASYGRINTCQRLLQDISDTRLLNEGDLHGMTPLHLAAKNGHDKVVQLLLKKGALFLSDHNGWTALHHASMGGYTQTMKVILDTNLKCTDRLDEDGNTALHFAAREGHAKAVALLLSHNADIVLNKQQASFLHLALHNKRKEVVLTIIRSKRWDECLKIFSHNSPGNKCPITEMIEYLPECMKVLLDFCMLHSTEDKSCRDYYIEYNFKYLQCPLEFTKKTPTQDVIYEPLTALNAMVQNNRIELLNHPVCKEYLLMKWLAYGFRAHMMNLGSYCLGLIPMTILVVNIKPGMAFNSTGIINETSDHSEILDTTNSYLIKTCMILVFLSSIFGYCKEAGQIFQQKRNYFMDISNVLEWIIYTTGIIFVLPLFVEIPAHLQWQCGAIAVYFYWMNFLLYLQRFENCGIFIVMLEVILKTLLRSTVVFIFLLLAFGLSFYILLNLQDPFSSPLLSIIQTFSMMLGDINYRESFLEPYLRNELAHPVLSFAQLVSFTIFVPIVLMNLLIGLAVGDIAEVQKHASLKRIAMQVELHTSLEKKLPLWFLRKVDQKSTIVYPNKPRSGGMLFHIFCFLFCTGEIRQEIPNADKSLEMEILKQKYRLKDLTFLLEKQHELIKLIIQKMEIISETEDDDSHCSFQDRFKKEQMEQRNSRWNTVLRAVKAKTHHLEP

Tested on in the first data set: not listed separately
The experiment in a line: in vivo rat pharmacokinetic (PK) studies, plasma clearance.
Details: not given
Turning to `O=C(NCc1cc(-c2ccc(C(F)(F)F)nc2)ncn1)[C@@H]1C[C@@H](F)CN1S(=O)(=O)c1ccc(F)cc1` [(2S,4R)-4-fluoro-1-(4-fluorophenyl)sulfonyl-N-[[6-[6-(trifluoromethyl)-3-pyridyl]pyrimidin-4-yl]methyl]pyrrolidine-2-carboxamide], the “Rat PK Clp” value was 15 mL/min/kg.

The data set is the same for the next values; noted with them: compared with related compounds.
`O=C(NCc1cc(-c2ccc(C(F)(F)F)nc2)ncn1)[C@@H]1C[C@@H](F)CN1S(=O)(=O)c1ccc(F)cc1` [(2S,4R)-4-fluoro-1-(4-fluorophenyl)sulfonyl-N-[[6-[6-(trifluoromethyl)-3-pyridyl]pyrimidin-4-yl]methyl]pyrrolidine-2-carboxamide]: the “stability in in vivo rat PK studies (clearance from the blood), in words” value was “highest stability (slowest clearance)”.

Staying with this data set, now noted: plasma, read-out: Rat PK Clp.
Regarding `O=C(NCc1cc(-c2ccc(C(F)(F)F)nc2)ncn1)[C@@H]1[C@@H](F)CCN1S(=O)(=O)c1ccc(F)cc1` [(2R,3S)-3-fluoro-1-(4-fluorophenyl)sulfonyl-N-[[6-[6-(trifluoromethyl)-3-pyridyl]pyrimidin-4-yl]methyl]pyrrolidine-2-carboxamide], the clearance was 101 mL/min/kg.

Regarding `O=C(NCc1cc(-c2ccc(C(F)(F)F)nc2)ncn1)[C@@H]1CCCN1S(=O)(=O)c1ccc(F)cc1` [(2S)-1-(4-fluorophenyl)sulfonyl-N-[[6-[6-(trifluoromethyl)-3-pyridyl]pyrimidin-4-yl]methyl]pyrrolidine-2-carboxamide], the clearance was 98 mL/min/kg.

As to `O=C(NCc1cc(-c2ccc(C(F)(F)F)nc2)ncn1)[C@@H]1CC(F)(F)CN1S(=O)(=O)c1ccc(F)cc1` [(2S)-4,4-difluoro-1-(4-fluorophenyl)sulfonyl-N-[[6-[6-(trifluoromethyl)-3-pyridyl]pyrimidin-4-yl]methyl]pyrrolidine-2-carboxamide], the clearance is 30 mL/min/kg.

As to `N#C[C@@H]1C[C@@H](C(=O)NCc2cc(-c3ccc(C(F)(F)F)cc3)ncn2)N(S(=O)(=O)c2ccc(F)cc2)C1` [(2S,4R)-4-cyano-1-(4-fluorophenyl)sulfonyl-N-[[6-[4-(trifluoromethyl)phenyl]pyrimidin-4-yl]methyl]pyrrolidine-2-carboxamide], the clearance is 7.6 mL/min/kg.

On to `C[C@@]1(C(=O)NCc2cc(-c3ccc(C(F)(F)F)nc3)ncn2)C[C@@H](F)CN1S(=O)(=O)c1ccc(F)cc1` [(2S,4R)-4-fluoro-1-(4-fluorophenyl)sulfonyl-2-methyl-N-[[6-[6-(trifluoromethyl)-3-pyridyl]pyrimidin-4-yl]methyl]pyrrolidine-2-carboxamide], for which the clearance was 15 mL/min/kg.

As for `C[C@@]1(F)C[C@@H](C(=O)NCc2cc(-c3ccc(C(F)(F)F)nc3)ncn2)N(S(=O)(=O)c2ccc(F)cc2)C1` [(2S,4R)-4-fluoro-1-(4-fluorophenyl)sulfonyl-4-methyl-N-[[6-[6-(trifluoromethyl)-3-pyridyl]pyrimidin-4-yl]methyl]pyrrolidine-2-carboxamide], the clearance came out at 11.3 mL/min/kg.

`COc1nc(CNC(=O)[C@@H]2C[C@@H](F)CN2S(=O)(=O)c2ccc(F)cc2)cc(-c2ccc(C(F)(F)F)nc2)n1` [(2S,4R)-4-fluoro-1-(4-fluorophenyl)sulfonyl-N-[[2-methoxy-6-[6-(trifluoromethyl)-3-pyridyl]pyrimidin-4-yl]methyl]pyrrolidine-2-carboxamide]: the clearance amounted to 16.5 mL/min/kg.

For the compound `COc1nn(-c2ccc(C(F)(F)F)nc2)cc1CNC(=O)[C@@H]1C[C@@H](F)CN1S(=O)(=O)c1ccc(F)cc1` [(2S,4R)-4-fluoro-1-(4-fluorophenyl)sulfonyl-N-[[3-methoxy-1-[6-(trifluoromethyl)-3-pyridyl]pyrazol-4-yl]methyl]pyrrolidine-2-carboxamide], the clearance amounted to 13 mL/min/kg.

As for `O=C(NCc1cc(-c2cnc(C(F)(F)F)nc2)c(F)cn1)[C@@H]1C[C@@H](F)CN1S(=O)(=O)c1ccc(F)cc1` [(2S,4R)-4-fluoro-1-(4-fluorophenyl)sulfonyl-N-[[5-fluoro-4-[2-(trifluoromethyl)pyrimidin-5-yl]-2-pyridyl]methyl]pyrrolidine-2-carboxamide], the clearance came to 5.9 mL/min/kg.

`O=C(NCc1cc(-c2ccc(C(F)(F)F)nc2)nc(-c2ccc(C(F)(F)F)nc2)c1)[C@@H]1C[C@@H](F)CN1S(=O)(=O)c1ccc(F)cc1` [(2S,4R)-N-[[2,6-bis[6-(trifluoromethyl)-3-pyridyl]-4-pyridyl]methyl]-4-fluoro-1-(4-fluorophenyl)sulfonyl-pyrrolidine-2-carboxamide]: the clearance turned out to be 9.1 mL/min/kg.

Take `O=C(NCc1cc(F)cc(-c2cnc(C(F)F)cn2)c1)[C@@H]1C[C@@H](F)CN1S(=O)(=O)c1ccc(F)cc1` [(2S,4R)-N-[[3-[5-(difluoromethyl)pyrazin-2-yl]-5-fluoro-phenyl]methyl] 4-fluoro-1-(4-fluorophenyl)sulfonyl-pyrrolidine-2-carboxamide]: the clearance turned out to be 9.9 mL/min/kg.

As to `O=C(NCc1cc(-c2ccc(OC(F)F)cc2)ncn1)[C@@H]1C[C@@H](F)CN1S(=O)(=O)c1ccc(F)cc1` [(2S,4R)-N-[[6-[4-(difluoromethoxy)phenyl]pyrimidin-4-yl]methyl]-4-fluoro-1-(4-fluorophenyl)sulfonyl-pyrrolidine-2-carboxamide], the clearance stood at 13.2 mL/min/kg.

For another data set, the target named is human TRPA1 (Homo sapiens (Human), UniProt O75762). Description: IC50 determination on the human TRPA1 channel, calcium fluorescence (Hamamatsu FDSS plate reader). Particulars: CHO cells expressing human TRPA1; block of cinnamaldehyde induced calcium influx; 20 minutes compound incubation; Hill coefficient fixed to 1.5; read-out: hTRPA1 AUC IC50. It is filed as cell-based. On the procedure:
IC50s (effective concentration) of compounds on the human TRPA1 channel were determined using a Hamamatsu FDSS fluorescence plate reader. CHO cells expressing human TRPA1 were plated into 384-well plates, incubated overnight at 37 C, and loaded with BD calcium indicator dye for 1 hr at 37° C. followed by 15 minutes. at room temperature. The assay buffer was Hank's Balanced Salt Solution (HBSS) containing 20 mM HEPES (pH readjusted to 7.4) along with 0.02% BSA.
Following dye load and plate cool down, compounds were added to the cells using the FDSS while monitoring fluorescence to determine whether any of the test compounds have TRPA1 agonist activity. Plates were then incubated with compound for 20 minutes at room temperature prior to adding agonist. Following this incubation, […] cinnamaldehyde was added to all wells of the plate and block of this cinnamaldehyde induced calcium influx was measured.
Fixing the Hill coefficient will generally reduce variability of the IC50 determination. The IC50s were examined by eye to make sure the MIN and MAX points were set correctly prior to validation of the results.
With `O=C(NCc1cc(-c2ccc(C(F)(F)F)nc2)ncn1)[C@@H]1[C@H]2CC[C@H](C2)N1S(=O)(=O)c1ccc(F)cc1` [Example 34, (1R,3S,4S)-2-(4-fluorophenylsulfonyl)-N-((6-(6-(trifluoromethyl)pyridin-3-yl)pyrimidin-4-yl)methyl)-2-azabicyclo[2.2.1]heptane-3-carboxamide], the IC50 (commonly the point on the concentration scale where inhibition reaches its midpoint) was 40 nM.

Regarding `O=C(NCc1cc(-c2ccc(C(F)(F)F)nc2)ncn1)[C@@H]1[C@@H](F)CCN1S(=O)(=O)c1ccc(F)cc1` [Example 35, (2R,3S)-3-fluoro-1-(4-fluorophenylsulfonyl)-N-((6-(6-(trifluoromethyl)pyridin-3-yl)pyrimidin-4-yl)methyl)pyrrolidine-2-carboxamide], the IC50 stood at 23 nM.

`O=C(NCc1cc(-c2ccc(C(F)(F)F)nc2)ncn1)[C@@H]1[C@H](F)CCN1S(=O)(=O)c1ccc(F)cc1` [Example 36, (2R,3R)-3-fluoro-1-(4-fluorophenylsulfonyl)-N-((6-(6-(trifluoromethyl)pyridin-3-yl)pyrimidin-4-yl)methyl)pyrrolidine-2-carboxamide]: the IC50 was determined as 120 nM.

On to `O=C(NCc1cc(N2CCC(C(F)(F)F)CC2)c(F)cn1)[C@@H]1C[C@@H](F)CN1S(=O)(=O)c1ccc(F)cc1` [Example 37, (2S,4R)-4-fluoro-N-((5-fluoro-4-(4-(trifluoromethyl)piperidin-1-yl)pyridin-2-yl)methyl)-1-(4-fluorophenylsulfonyl)pyrrolidine-2-carboxamide], for which the IC50 stood at 21 nM.
